Experiment [1] has as its target PRMT5/MEP50 complex (Homo sapiens (Human), UniProt O14744). Kind of experiment: Biochemical assay: PRMT5/MEP50 methylation of histone H2A with 3H-SAM, filter plate scintillation. As for the experimental part:
Biochemical Assay Protocol
Compounds were solubilized, and 3-fold diluted in 100% DMSO. […] Standard reactions were performed in a total volume of […] assay buffer, with histone H2A (5 μM final) as substrate. To this was added the PRMT5/MEP50 complex diluted to provide a final assay concentration of 5 nM and the compounds were allowed to preincubate for 15 to 20 minutes at room temperature. The reaction was initiated by adding S-[3H-methyl]-adenosyl-L-methionine (PerkinElmer) to final concentration of 1 μM. Following a 60 minutes incubation at 30° C., the reaction was stopped by adding 100 μL of 20% TCA. Each reaction was spotted onto filter plate (MultiScreen FB Filter Plate, Millipore), and washed 5 times with PBS buffer, Scintillation fluid was added to the filter plate and read in a scintillation counter. IC50 values were determined by fitting the data to the standard 4 parameters with Hill Slope using GraphPad Prism software.

Experiment [2] has as its system Symmetric Di-Methyl Arginine (sDMA) in Granta-519 cells. Kind of experiment: Western blot for symmetric di-methyl arginine (sDMA) marks in Granta cells, 3 days treatment. The experiment is classed as cell-based. To be noted: Homo sapiens; for IC50: 3 days; for inhibition at 1 µM: Granta-519. As to the method:
Cell Treatment and Western Blotting for Detecting Symmetric Di-Methyl Arginine (sDMA) and Histone H3R8 Dimethyl Symmetric (H3R8me2s) Marks
Initial compounds screening in A549 cells: Compounds were dissolved in DMSO to make 10 mM stock and further diluted to 0.1, and 1 mM. A549 cells were maintained in PRMI 1640 (Corning Cellgro, Catalog #: 10-040-CV) medium supplemented with 10% v/v FBS (GE Healthcare, Catalog #: SH30910.03). One day before experiment, 1.25×10^5 cells were seeded in 6 well plate in 3 mL medium and incubated overnight. The next day, medium was changed and 3 uL of compound solution was added (1:1,000 dilution, 0.1 and 1 uM final concentration; DMSO concentration: 0.1%), and incubated for 3 days. Cells incubated with DMSO was used as a vehicle control. Cells were washed once with PBS, trypsinized in 150 uL 0.25% Trypsin (Corning, Catalog #: 25-053-CI), neutralized with 1 mL complete medium, transferred to microcentrifuge tubes and collected. Cell pellet was then resuspended in 15 uL PBS, lysed in 4% SDS, and homogenized by passing through homogenizer column (Omega Biotek, Catalog #: HCR003). Total protein concentrations were determined by BCA assay (ThermoFisher Scientific, Catalog #: 23225). Lysates were mixed with 5× Laemmli buffer and boiled for 5 min. Forty ug of total protein was separated on SDS-PAGE gels (Bio-Rad, catalog #: 4568083, 4568043), transferred to PVDF membrane, blocked with 5% dry milk (Bio-Rad, Catalog #: 1706404) in TBS with 0.1% v/v Tween 20 (TBST) for 1 hour at room temperature (RT), and incubated with primary antibodies (sDMA: Cell signaling, Catalog #: 13222, 1:3,000; H3R8me2s: Epigentek, Catalog #: A-3706-100, 1:2,000; β-Actin: Abcam, Catalog #: ab8227, 1:10,000) in 5% dry milk in TBST at 4° C. for overnight. The next day, membranes were washed with TBST, 5×5 min, and incubated withhP conjugated seconded antibody (GE Healthcare; Catalog #: NA934-1ML; 1:5,000) for 2 hours at RT, followed by 5×5 min washes with TBST, and incubation with ECL substrates (Bio-Rad, Catalog #: 1705061, 1705062). Chemiluminescent signal was captured with FluoChem HD2 imager (Proteinsimple) and analyzed by ImageJ.
Cells incubated with DMSO was used as a vehicle control. Cells were harvested and subjected to western blot analysis as described above. SmD3me2s and H3R8me2s bands were quantified by ImageJ. Signals were normalized to β-Actin and DMSO control. IC50 values were calculated using Graphpad Prism.
(In western blotting, separated proteins are transferred to a membrane and probed.)

The mark [3] stands for this setting: histone H2A 5 μM, SAM 1 μM, enzyme 5 nM, read-out: PRMT5/MEP50 IC50.

Structures can show the parent of a compound that is named as a salt. Where two headings read alike, the source gives them in different places.

Chain of PRMT5/MEP50 complex (O14744 whole entry): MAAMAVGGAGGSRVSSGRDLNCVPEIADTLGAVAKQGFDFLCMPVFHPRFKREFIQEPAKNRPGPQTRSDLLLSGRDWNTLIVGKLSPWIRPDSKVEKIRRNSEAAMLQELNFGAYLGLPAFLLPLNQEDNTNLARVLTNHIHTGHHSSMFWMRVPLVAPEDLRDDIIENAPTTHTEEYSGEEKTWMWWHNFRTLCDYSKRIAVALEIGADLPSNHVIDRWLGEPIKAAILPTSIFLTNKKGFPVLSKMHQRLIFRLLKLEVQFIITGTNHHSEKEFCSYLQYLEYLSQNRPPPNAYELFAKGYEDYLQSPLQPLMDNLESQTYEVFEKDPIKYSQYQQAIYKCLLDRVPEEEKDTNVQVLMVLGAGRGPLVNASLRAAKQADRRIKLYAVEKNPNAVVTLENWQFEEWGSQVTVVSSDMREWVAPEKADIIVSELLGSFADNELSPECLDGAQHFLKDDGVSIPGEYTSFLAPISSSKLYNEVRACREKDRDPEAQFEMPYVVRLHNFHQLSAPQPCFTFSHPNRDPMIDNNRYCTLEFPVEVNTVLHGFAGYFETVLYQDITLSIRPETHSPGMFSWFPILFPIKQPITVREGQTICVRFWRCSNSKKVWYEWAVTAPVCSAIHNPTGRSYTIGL
Chain of PRMT5/MEP50 complex (Q9BQA1 whole entry partner): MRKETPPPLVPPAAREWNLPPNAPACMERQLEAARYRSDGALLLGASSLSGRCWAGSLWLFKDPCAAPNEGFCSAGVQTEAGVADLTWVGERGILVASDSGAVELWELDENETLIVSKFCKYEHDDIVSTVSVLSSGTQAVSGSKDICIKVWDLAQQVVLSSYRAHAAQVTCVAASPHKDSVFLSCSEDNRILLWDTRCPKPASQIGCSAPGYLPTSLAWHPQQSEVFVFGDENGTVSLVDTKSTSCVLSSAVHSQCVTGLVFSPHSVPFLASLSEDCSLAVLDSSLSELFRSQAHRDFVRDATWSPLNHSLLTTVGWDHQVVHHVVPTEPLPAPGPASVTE

In the case of `C[C@@](O)(c1ccc(Cl)c(Cl)c1)[C@H]1C[C@@H](n2ccc3/c(=N\O)nc[nH]c32)[C@H](O)[C@@H]1O` [Example 94-B, 7-((1R,2S,3R,4S)-4-((S)-1-(3,4-dichlorophenyl)-1-hydroxyethyl)-2,3-dihydroxycyclopentyl)-1,7-dihydro-4H-pyrrolo[2,3-d]pyrimidin-4-one oxime], the IC50 turned out to be 3.4 nM in experiment [1] (biochemical potency, read-out: PRTMT5/MEP50 IC50) and 53 nM in experiment [2] (Granta-519, 72 h, Granta cell line).

Consider `CO/N=c1\nc[nH]c2c1ccn2[C@@H]1O[C@H]([C@H](O)c2ccc(C(F)(F)F)c(C)c2)[C@@H](O)[C@H]1O` [Example 98, 7-((2R,3R,4S,5R)-3,4-dihydroxy-5-((R)-hydroxy(3-methyl-4-(trifluoromethyl)phenyl)methyl)tetrahydrofuran-2-yl)-1,7-dihydro-4H-pyrrolo[2,3-d]pyrimidin-4-one O-methyl oxime], for which the IC50 in experiment [1] (setting [3]) was determined as 8.4 nM; in experiment [2] (72 h, Granta-519 cell line) it was 9 nM.

`CO/N=c1\nc[nH]c2c1ccn2[C@@H]1O[C@H]([C@H](OC)c2ccc(Cl)c(F)c2)[C@@H](O)[C@H]1O` [Example 102, 7-((2R,3R,4S,5S)-5-((R)-(4-chloro-3-fluorophenyl)(methoxy)methyl)-3,4-dihydroxytetrahydrofuran-2-yl)-1,7-dihydro-4H-pyrrolo[2,3-d]pyrimidin-4-one O-methyl oxime]: the IC50 was 436 nM in experiment [1] (setting [3]) and 3360 nM in experiment [2] (72 h, Granta-519 cell line).

In the case of `CN/N=c1/nc[nH]c2c1ncn2[C@@H]1O[C@H]([C@H](O)c2ccc(Cl)cc2)[C@@H](O)[C@H]1O` [compound 52, (2R,3S,4R,5R)-2-[(R)-(4-chlorophenyl)-hydroxy-methyl]-5-[6-(methylhydrazono)-3H-purin-9-yl]tetrahydrofuran-3,4-diol; 2,2,2-trifluoroacetic Acid], in experiment [1] (setting [3]), the IC50 is 188 nM. For the same compound, at 1 µM the inhibition in experiment [2] was 39%.

Regarding `O/N=c1/nc[nH]c2c1ncn2[C@@H]1O[C@H]([C@H](O)c2ccc(Cl)cc2)[C@@H](O)[C@H]1O` [compound 54, 9-[(2R,3R,4S,5R)-5-[(R)-(4-chlorophenyl)-hydroxy-methyl]-3,4-dihydroxy-tetrahydrofuran-2-yl]-3H-purin-6-one oxime trifluoroacetic Acid Salt], in experiment [1] (setting [3]), the IC50 stood at 25.6 nM. Further, in experiment [2], the inhibition (usually how much of the control response was suppressed) at 1 µM is 55%.

`C[C@@](O)(c1ccc(Cl)cc1)[C@H]1O[C@@H](n2ccc3/c(=N/O)nc[nH]c32)[C@H](O)[C@@H]1O` [compound 59, 7-((2R,3R,4S)-5-((R)-1-(4-chlorophenyl)-1-hydroxyethyl)-3,4-dihydroxytetrahydrofuran-2-yl)-1,7-dihydro-4H-pyrrolo[2,3-d]pyrimidin-4-one oxime hydrochloride]: the IC50 was 2.8 nM in experiment [1] (setting [3]) and 45 nM in experiment [2] (72 h, Granta-519 cell line).

Regarding `CO/N=c1\nc[nH]c2c1ccn2[C@@H]1O[C@H]([C@](C)(O)c2ccc(Cl)cc2)[C@@H](O)[C@H]1O` [compound 60, 7-((2R,3R,4S)-5-((R)-1-(4-chlorophenyl)-1-hydroxyethyl)-3,4-dihydroxytetrahydrofuran-2-yl)-1,7-dihydro-4H-pyrrolo[2,3-d]pyrimidin-4-one O-methyl oxime], the IC50 came out at 37.7 nM in experiment [1] (setting [3]) and 438 nM in experiment [2] (72 h, Granta-519 cell line).

`O/N=c1/nc[nH]c2c1ccn2[C@@H]1O[C@H]([C@H](O)c2ccc(Cl)c(F)c2)[C@@H](O)[C@H]1O` [compound 63, 7-((2R,3R,4S,5R)-5-((R)-(4-chloro-3-fluorophenyl)(hydroxy)methyl)-3,4-dihydroxytetrahydrofuran-2-yl)-1,7-dihydro-4H-pyrrolo[2,3-d]pyrimidin-4-one oxime]: the IC50 in experiment [1] (setting [3]) was 0.7 nM; in experiment [2] (72 h, Granta-519 cell line), 10.8 nM.

`CN/N=c1\nc[nH]c2c1ccn2[C@@H]1O[C@H]([C@H](O)c2ccc(Cl)cc2)[C@@H](O)[C@H]1O` [compound 64, (2R,3S,4R,5R)-2-[(R)-(4-chlorophenyl)-hydroxy-methyl]-5-[4-(methylhydrazono)-1H-pyrrolo[2,3-d]pyrimidin-7-yl]tetrahydrofuran-3,4-diol hydrochloride]: the IC50 in experiment [1] (setting [3]) is 8.3 nM; in experiment [2] (72 h, Granta-519 cell line), 93 nM.

The values are drawn from patent US11220524B2, “Selective inhibitors of protein arginine methyltransferase 5 (PRMT5)” (PRELUDE THERAPEUTICS, INCORPORATED, priority 2017, dated 2022).
